Measured values from ChEMBL document CHEMBL4406811, “Optimization and Mechanistic Characterization of Pyridopyrimidine Inhibitors of Bacterial Biotin Carboxylase” (J Med Chem, 2019).
In brackets after ≈: the same amount, converted by molar mass. Activity calls are given as the source filed them. No cut-off for these calls is given here.

Assays:
Escherichia coli [1] = assay: Antibacterial activity against Escherichia coli DM4100 harboring deltatolC mutant measured after 18 to 20 hrs in presence of permeabilizing agent PMBN by broth microdilution method; assay type: functional
Escherichia coli [2] = assay: Antibacterial activity against Escherichia coli DM4100 harboring deltatolC mutant measured after 18 to 20 hrs by broth microdilution method; assay type: functional
Pseudomonas aeruginosa = assay: Antibacterial activity against Pseudomonas aeruginosa PAO1 PAM1262 harboring MexAB-OprM/MexCD-OprJ/MexEF-OprN deletion mutant measured after 18 to 20 hrs by broth microdilution method; assay type: functional
Biotin carboxylase = Biotin carboxylase (Pseudomonas aeruginosa (strain ATCC 15692 / DSM 22644 / CIP 104116 / JCM14847 / LMG 12228 / 1C / PRS 101 / PAO1), UniProt P37798); assay: Inhibition of recombinant N-terminal His-tagged Pseudomonas aeruginosa PAO1 biotin carboxylase expressed in Escherichia coli Rosetta(DE3) pLysS cells using biotin as substrate by spectroscopic analysis
Biotin carboxylase, sequence (P37798 whole entry): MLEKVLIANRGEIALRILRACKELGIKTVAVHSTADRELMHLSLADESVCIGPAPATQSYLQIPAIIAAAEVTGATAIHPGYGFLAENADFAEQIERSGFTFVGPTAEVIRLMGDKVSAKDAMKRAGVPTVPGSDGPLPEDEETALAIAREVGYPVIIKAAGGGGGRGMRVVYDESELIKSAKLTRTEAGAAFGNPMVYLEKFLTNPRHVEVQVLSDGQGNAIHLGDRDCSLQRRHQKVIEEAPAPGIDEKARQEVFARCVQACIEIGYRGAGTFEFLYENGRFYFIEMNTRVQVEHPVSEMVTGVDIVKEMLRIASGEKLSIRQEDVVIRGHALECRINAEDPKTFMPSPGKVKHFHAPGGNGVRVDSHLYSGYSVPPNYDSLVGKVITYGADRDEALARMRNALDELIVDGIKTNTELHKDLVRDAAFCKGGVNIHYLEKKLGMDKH

Escherichia coli [3] = assay: Induction of cytological changes in Escherichia coli ATCC 25922 assessed as formation of short chains of three to eight cells at 150 ug/ml measured after 2 hrs by FM 4-64/DAPI staining based microscopic analysis; assay type: functional, organism-based

SMILES | MIC (Escherichia coli [1]) [µg/mL] | MIC (Escherichia coli [2]) [µg/mL] | MIC (Pseudomonas aeruginosa) [µg/mL] | IC50 (Biotin carboxylase) [nM] | Activity (Escherichia coli [3])
Nc1ncc2cc(-c3c(Cl)cccc3-c3cccnc3)c(N)nc2n1 | 0.06 | 0.12 (≈ 0.344 µM) | 4 (≈ 11.5 µM) | 36 | –
Nc1ncc2cc(-c3c(Cl)cccc3Cl)c(N)nc2n1 | 0.25 | 0.5 (≈ 1.63 µM) | 16 (≈ 52.3 µM) | 320 | –
Nc1ncc2cc(-c3c(Cl)cccc3Cl)c(N3CCC(N)(CO)C3)nc2n1 (centres undefined) | 0.25 | 1 (≈ 2.47 µM) | – | 190 | –
Nc1ncc2cc(-c3c(Cl)cccc3-c3ccncc3)c(N3C[C@@H]4[C@@H](N)[C@@H]4C3)nc2n1 | 0.015 | 0.03 (≈ 0.0698 µM) | 2 (≈ 4.65 µM) | ≤ 15 | –
COc1ncc(-c2cccc(Cl)c2-c2cc3cnc(N)nc3nc2N2C[C@@H]3[C@@H](N)[C@@H]3C2)cc1F | 0.008 | 0.015 (≈ 0.0314 µM) | 2 (≈ 4.18 µM) | ≤ 15 | –
COc1ccc(-c2cccc(Cl)c2-c2cc3cnc(N)nc3nc2N)cn1 | 0.03 | 0.06 (≈ 0.158 µM) | – | 32 | –
NCC1(O)CCN(c2nc3nc(N)ncc3cc2-c2c(Cl)cccc2Cl)C1 (centres undefined) | 0.25 | 1 (≈ 2.47 µM) | > 64 | 83 | –
NCC1(F)CCN(c2nc3nc(N)ncc3cc2-c2c(Cl)cccc2Cl)C1 (centres undefined) | 1 | – | – | 440 | –
Cc1ncc(-c2cccc(Cl)c2-c2cc3cnc(N)nc3nc2N2C[C@@H]3[C@@H](N)[C@@H]3C2)s1 | 0.004 | 0.008 (≈ 0.0178 µM) | 1 (≈ 2.22 µM) | ≤ 15 | –
NCC1CCN(c2nc3nc(N)ncc3cc2-c2c(Cl)cccc2Cl)C1 (centres undefined) | 0.12 | 0.5 (≈ 1.28 µM) | – | 64 | Active
NCC1CCN(c2nc3nc(N)ncc3cc2-c2c(Cl)cccc2Cl)CC1 | 0.5 | 1 (≈ 2.48 µM) | 64 (≈ 159 µM) | 320 | –
CC(C)COc1cccc(Cl)c1-c1cc2cnc(N)nc2nc1N | ≤ 0.06 | 0.25 (≈ 0.727 µM) | – | 93 | –
NC(=O)C1CCN(c2nc3nc(N)ncc3cc2-c2c(Cl)cccc2Cl)C1 (centres undefined) | 0.12 | 0.5 (≈ 1.24 µM) | – | 170 | –
Nc1ncc2cc(-c3ccccc3-c3cccnc3)c(N)nc2n1 | 0.5 | 2 (≈ 6.36 µM) | 16 (≈ 50.9 µM) | 130 | –
Nc1ncc2cc(-c3c(Cl)cccc3Cl)c(N3CCC(CO)C3)nc2n1 (centres undefined) | 0.12 | 0.25 (≈ 0.641 µM) | – | 140 | –
Nc1ncc2cc(-c3ccccc3-c3ccccc3)c(N)nc2n1 | 0.25 | 0.5 (≈ 1.6 µM) | – | 79 | –
Nc1ncc2cc(-c3c(Cl)cccc3Cl)c(N3C[C@@H]4[C@@H](N)[C@@H]4C3)nc2n1 | 0.06 | 0.12 (≈ 0.31 µM) | – | 33 | –
